Consider nine compounds from patent US9493506B2 (Enanta Pharmaceuticals, Inc., priority 2010, dated 2016).

Holding throughout (format): cell-based, hepatitis C virus (genotype 1a-H77)
The subject of assay [1] is HCV replicon with a R155K mutation in a 1a-H77 background. The assay is described as follows: transient replicon assay, R155K mutation in 1a-H77 background. The settings on record: Hepatitis C virus, read-out: EC50 in a transient replicon assay with a R155K mutation in a 1a-H77 background. As for the experimental part:
(§1) Replicon cell lines can be maintained in Dulbecco's modified Eagles medium (DMEM) containing 100 IU/ml penicillin, […] streptomycin (Invitrogen), […] G418 (Invitrogen) and 10% (v/v) fetal bovine serum (FBS). Replicon-containing cells can be seeded into 96 well plates at a density of 5000 cells per well in 100 μl DMEM containing 5% FBS. The next day, the compound can be initially diluted in dimethyl sulfoxide (DMSO) to generate a 200× stock of the inhibitor in a series of 8 half-log dilutions. The dilution series can then be diluted 100-fold in the medium containing 5% FBS. One hundred microliters of medium with the inhibitor can be added to each well of the overnight cell culture plate already containing 100 μl of DMEM with 5% FBS. In assays where the protein binding effect on inhibitor potency is assessed, the medium from the overnight cell culture plates can be replaced with 200 μl DMEM containing 40% human plasma (Innovative Research) plus 5% FBS as well as compound. The cells can be grown for 4 days in tissue culture incubators. The inhibitory effects of compounds against the replicons can be determined by measuring either the level of luciferase or HCV RNA. The luciferase assay can be conducted using a Luciferase Assay System kit (Promega) following the manufacturer's instructions. Briefly, the cell culture medium is removed and wells are washed with 200 μl of phosphate-buffered saline. To each well Passive Lysis buffer (Promega, Wis.) is added and the plates are incubated for 30 min with rocking to lyse the cells. Luciferin solution (50 μl, Promega) is added, and luciferase activity is measured with a Victor II luminometer (Perkin-Elmer). To determine HCV RNA levels, RNA extractions can be performed using the CellsDirect kit (Invitrogen), and the HCV RNA copy number can be measured using the SuperScript III Platinum One-Step qRT-PCR system (Invitrogen) and primers specific to the HCV 5′ nontranslated region. Cytotoxicity can be determined by the 3-[4,5-dimethylhiazol-2-yl]-2,5-diphenyltetrazolium bromide (MTT) colorimetric assay as follows. Replicon cells is plated in 96-well plates (4000 cells per well), the next day compound dilutions are added as in the activity assay, and the cells are grown in the presence of the inhibitors for 4 days. The MTT solution is diluted in DMEM containing 5% FBS and 60 μl of the solution is added to the cells. After 4 hrs, the cells are solubilized by the addition of 30 […]μl SDS (20% in 0.02 N HCl). The plates are incubated overnight and the optical density can be measured at 570 nm. To determine compounds' EC50 and TD50, luciferase, RNA inhibition and MTT data can be analyzed using the GraphPad Prism 4 software (equation: sigmoidal dose-response—variable slope).
(§2) The 1a-H77 replicon for transient assays further differs from the replicon in the stable cell line in that it contains NS2 through NS5B in the second cistron. The 1b-N strain replicon contains NS3 through NS5B in the second cistron, with adaptive mutations E1202G in NS3 and S2204I in NS5A. Mutagenesis can be performed using the Stratagene QuikChange XL II site-directed mutagenesis kit. Mutants' sequences can be confirmed, plasmids can be linearized with Xba I restriction enzyme and used as template for in vitro transcription reactions to make mutant replicon RNA for transient transfections. In vitro transcription can be performed with the T7 Megascript kit (Ambion).
(§3) Transient replicon transfections can be performed essentially as described by Mo et al. (Antimicrob Agents Chemother (2005) 49(10):4305-4314) with slight modifications. Fifteen micrograms of template RNA can be used to electroporate 3×10^6 cells in a 200 μl volume in a 0.2 cm cuvette. The cells used for transient transfections can be Huh7 cells obtained by curing replicon-containing cells with IFN (Mo et al., supra). Electroporation can be done with a Gene Pulser II (Bio-Rad, CA) at 480V and 25 μF, using two manual pulses. […]
In general terms: In antiviral work, replicon cells carry a viral genome segment that copies itself.

The test system of assay [2] is HCV replicon with a D168E mutation in a 1a-H77 background. Briefly: transient replicon assay, D168E mutation in 1a-H77 background. The conditions noted are these: Hepatitis C virus, read-out: EC50 in a transient replicon assay with a D168E mutation in a 1a-H77 background. As for the experimental part:
as §1, §2, §3

For assay [3], the system named is HCV replicon with a D168V mutation in a 1a-H77 background. Briefly: transient replicon assay, D168V mutation in 1a-H77 background. The settings on record: Hepatitis C virus, read-out: EC50 in a transient replicon assay with a D168V mutation in a 1a-H77 background. As for the experimental part:
as §1, §2, §3

The structures appear in SMILES notation. Some results are limits rather than exact numbers.

In general, EC50 refers to the midpoint of the concentration-response curve.

On to `Cc1nc2c(Br)cc(F)cc2nc1O[C@@H]1C[C@H]2C(=O)N[C@]3(C(=O)NS(=O)(=O)C4(C)CC4)C[C@H]3/C=C\CCCCC[C@H](NC(=O)c3noc(C)c3C)C(=O)N2C1` [Example 102, N-((2R,6S,13aS,14aR,16aS,Z)-2-(5-bromo-7-fluoro-3-methylquinoxalin-2-yloxy)-14a-(1-methylcyclopropylsulfonylcarbamoyl)-5,16-dioxo-1,2,3,5,6,7,8,9,10,11,13a,14,14a,15,16,16a-hexadecahydrocyclopropa[e]pyrrolo[1,2-a][1,4]diazacyclopentadecin-6-yl)-4,5-dimethylisoxazole-3-carboxamide], for which the EC50 in assay [1] was under 1 nM; in assay [2] it was 3 to 20 nM; in assay [3] it was under 25 nM.

With `CC(C)(C)OC(=O)N[C@H]1CCCCC/C=C\[C@@H]2C[C@@]2(C(=O)NS(=O)(=O)C2CC2)NC(=O)[C@@H]2C[C@@H](Oc3nc4cc(F)ccc4nc3C(F)(F)F)CN2C1=O` [Example 106, tert-butyl (2R,6S,13aS,14aR,16aS,Z)-14a-(cyclopropylsulfonylcarbamoyl)-2-(7-fluoro-3-(trifluoromethyl)quinoxalin-2-yloxy)-5,16-dioxo-1,2,3,5,6,7,8,9,10,11,13a,14,14a,15,16,16a-hexadecahydrocyclopropa[e]pyrrolo[1,2-a][1,4]diazacyclopentadecin-6-ylcarbamate], the EC50 in assay [1] was under 1 nM; in assay [2] it was 3 to 20 nM; in assay [3], 50 to 250 nM.

As for `Cc1onc(C(=O)N[C@H]2CCCCC/C=C\[C@@H]3C[C@@]3(C(=O)NS(=O)(=O)C3(C)CC3)NC(=O)[C@@H]3C[C@@H](Oc4nc5cc(F)ccc5nc4C(F)(F)F)CN3C2=O)c1C` [Example 108, N-((2R,6S,13aS,14aR,16aS,Z)-2-(7-fluoro-3-(trifluoromethyl)quinoxalin-2-yloxy)-14a-(1-methylcyclopropylsulfonylcarbamoyl)-5,16-dioxo-1,2,3,5,6,7,8,9,10,11,13a,14,14a,15,16,16a-hexadecahydrocyclopropa[e]pyrrolo[1,2-a][1,4]diazacyclopentadecin-6-yl)-4,5-dimethylisoxazole-3-carboxamide], the EC50 in assay [1] was under 1 nM; in assay [2], under 3 nM; in assay [3] it was under 25 nM.

`CC1(S(=O)(=O)NC(=O)[C@@]23C[C@H]2/C=C\CCCCC[C@H](NC(=O)c2ccon2)C(=O)N2C[C@H](Oc4nc5cc(F)ccc5nc4C(F)(F)F)C[C@H]2C(=O)N3)CC1` [Example 109, N-((2R,6S,13aS,14aR,16aS,Z)-2-(7-fluoro-3-(trifluoromethyl)quinoxalin-2-yloxy)-14a-(1-methylcyclopropylsulfonylcarbamoyl)-5,16-dioxo-1,2,3,5,6,7,8,9,10,11,13a,14,14a,15,16,16a-hexadecahydrocyclopropa[e]pyrrolo[1,2-a][1,4]diazacyclopentadecin-6-yl)isoxazole-3-carboxamide]: the results for the EC50 in assay [1], in assay [2] and in assay [3] were under 1 nM, under 3 nM and under 25 nM, respectively.

Consider `CC(C)(C)OC(=O)N[C@H]1CCCCC/C=C\[C@@H]2C[C@@]2(C(=O)NS(=O)(=O)C2(C)CC2)NC(=O)[C@@H]2C[C@@H](Oc3nc4cc(F)ccc4nc3C(F)(F)F)CN2C1=O` [Example 110, tert-butyl (2R,6S,13aS,14aR,16aS,Z)-2-(7-fluoro-3-(trifluoromethyl)quinoxalin-2-yloxy)-14a-(1-methylcyclopropylsulfonylcarbamoyl)-5,16-dioxo-1,2,3,5,6,7,8,9,10,11,13a,14,14a,15,16,16a-hexadecahydrocyclopropa[e]pyrrolo[1,2-a][1,4]diazacyclopentadecin-6-ylcarbamate], for which the EC50 in assay [1] was under 1 nM; in assay [2], 3 to 20 nM; in assay [3], 25 to 50 nM.

On to `CC(C)(C)OC(=O)N[C@H]1CCCCC/C=C\[C@@H]2C[C@@]2(C(=O)NS(=O)(=O)C2CC2)NC(=O)[C@@H]2C[C@@H](Oc3nc4c(F)cccc4nc3C(F)(F)F)CN2C1=O` [Example 112, tert-butyl (2R,6S,13aS,14aR,16aS,Z)-14a-(cyclopropylsulfonylcarbamoyl)-2-(8-fluoro-3-(trifluoromethyl)quinoxalin-2-yloxy)-5,16-dioxo-1,2,3,5,6,7,8,9,10,11,13a,14,14a,15,16,16a-hexadecahydrocyclopropa[e]pyrrolo[1,2-a][1,4]diazacyclopentadecin-6-ylcarbamate], for which the EC50 is under 1 nM in assay [1], 3 to 20 nM in assay [2] and 25 to 50 nM in assay [3].

As to `Cc1cc(C(=O)N[C@H]2CCCCC/C=C\[C@@H]3C[C@@]3(C(=O)NS(=O)(=O)C3CC3)NC(=O)[C@@H]3C[C@@H](Oc4nc5c(F)cccc5nc4C(F)(F)F)CN3C2=O)no1` [Example 113, N-((2R,6S,13aS,14aR,16aS,Z)-14a-(cyclopropylsulfonylcarbamoyl)-2-(8-fluoro-3-(trifluoromethyl)quinoxalin-2-yloxy)-5,16-dioxo-1,2,3,5,6,7,8,9,10,11,13a,14,14a,15,16,16a-hexadecahydrocyclopropa[e]pyrrolo[1,2-a][1,4]diazacyclopentadecin-6-yl)-5-methylisoxazole-3-carboxamide], the values for the half-maximal effective concentration (EC50) in assay [1], in assay [2] and in assay [3] were under 1 nM, under 3 nM and under 25 nM, respectively.

Turning to `CC(C)(C)OC(=O)N[C@H]1CCCCC/C=C\[C@@H]2C[C@@]2(C(=O)NS(=O)(=O)C2(C)CC2)NC(=O)[C@@H]2C[C@@H](Oc3nc4c(F)cccc4nc3C(F)(F)F)CN2C1=O` [Example 114, tert-butyl (2R,6S,13aS,14aR,16aS,Z)-2-(8-fluoro-3-(trifluoromethyl)quinoxalin-2-yloxy)-14a-(1-methylcyclopropylsulfonylcarbamoyl)-5,16-dioxo-1,2,3,5,6,7,8,9,10,11,13a,14,14a,15,16,16a-hexadecahydrocyclopropa[e]pyrrolo[1,2-a][1,4]diazacyclopentadecin-6-ylcarbamate], the EC50 is under 1 nM in assay [1], 3 to 20 nM in assay [2] and 50 to 250 nM in assay [3].

Regarding `Cc1cc(C(=O)N[C@H]2CCCCC/C=C\[C@@H]3C[C@@]3(C(=O)NS(=O)(=O)C3(C)CC3)NC(=O)[C@@H]3C[C@@H](Oc4nc5c(F)cccc5nc4C(F)(F)F)CN3C2=O)no1` [Example 115, N-((2R,6S,13aS,14aR,16aS,Z)-2-(8-fluoro-3-(trifluoromethyl)quinoxalin-2-yloxy)-14a-(1-methylcyclopropylsulfonylcarbamoyl)-5,16-dioxo-1,2,3,5,6,7,8,9,10,11,13a,14,14a,15,16,16a-hexadecahydrocyclopropa[e]pyrrolo[1,2-a][1,4]diazacyclopentadecin-6-yl)-5-methylisoxazole-3-carboxamide], the figures for the EC50 in assay [1], in assay [2] and in assay [3] were under 1 nM, under 3 nM and under 25 nM, respectively.
